Data on two compounds can be found in article PMC4176827 (Molecular and biochemical parasitology, 2014).

Usually inhibition stands for the relative decrease from the control value, in per cent.

In assay [1] the target is T1, CpDHS (Cryptosporidium parvum, UniProt A3FQA5).
T1 sequence (A3FQA5 1-362): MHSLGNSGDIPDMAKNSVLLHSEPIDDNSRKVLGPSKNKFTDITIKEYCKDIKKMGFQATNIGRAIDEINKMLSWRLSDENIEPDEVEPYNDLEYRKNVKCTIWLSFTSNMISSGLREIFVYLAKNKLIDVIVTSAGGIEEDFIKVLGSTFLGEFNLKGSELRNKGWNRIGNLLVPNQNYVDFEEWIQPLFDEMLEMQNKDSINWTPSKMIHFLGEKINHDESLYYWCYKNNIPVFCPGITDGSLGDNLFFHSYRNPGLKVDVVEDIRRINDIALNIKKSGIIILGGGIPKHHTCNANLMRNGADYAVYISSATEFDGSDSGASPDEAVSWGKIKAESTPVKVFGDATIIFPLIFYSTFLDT
Nature of the assay: fluorescence of enzyme-bound NADH. Type of assay: biochemical. The note with it: 100 µM spermidine, no eIF5A, 0.2 M glycine buffer pH 9.2.

Assay [2] addresses T1, CpDHS. Nature of the assay: radiometric deoxyhypusine synthase assay. Type of assay: biochemical. The following applies: read-out: % inhibition at 1 μM.

As to `NC(=O)c1ccc[n+]([C@@H]2O[C@H](COP(=O)(O)OP(=O)(O)OC[C@H]3O[C@@H](n4cnc5c(N)ncnc54)[C@H](O)[C@@H]3O)[C@@H](O)[C@H]2O)c1` [NAD^+], in assay [1], the “fluorescence of enzyme-bound NADH (excitation 340 nm, emission 441 nm)” value is “both spermidine and NAD^+ are required for NADH fluorescence”.

For the compound `N=C(N)NCCCCCCCN` [GC7, N^1-guanyl-1,7-diaminoheptane], the inhibition at 1 µM in assay [2] is greater than 90%.
